From patent US20250049740A1, “COMPOUND AND USE THEREOF IN PREPARATION OF MEDICAMENT FOR TREATING ALZHEIMER'S DISEASE” (priority 2024, published 2025)

What was measured:
Format in all cases: in vivo, mouse
[1] = tested on: IBA-1 and GFAP positive cells; assay: IHC of brain neuroinflammation markers, wild-type mice
Protocol: (§1) 6-week-old female wild-type mice C57BL/6J were divided into a control group injected with normal saline (Ctrl), a diseased group (injected with OLDA), and a treatment group (Formula I-OLDA). The administration was carried out by intraperitoneal injection, and the diseased group (OLDA, 0.5 mg/kg to 1.5 mg/kg), the control group (injected with normal saline, the volume of which was equal to that in the diseased group), and the treatment group (0.5 mg/kg to 1.5 mg/kg of OLDA, and 0.5 mg/kg to 1.5 mg/kg of formula I, prepared into a mixed solution for administration) were all administered once a day by injection for 8 consecutive weeks. After administration, the learning and memory ability of the mice in each group was evaluated by Y maze and Morris water maze tests.
(§2) According to the standard operating procedure of mouse brain anatomy, the mice in the control group, diseased group and treatment group in Example 3 were sacrificed, and their brain tissues and colon tissues were collected respectively and cryopreserved at −80° C.
(§3) The brain tissues of the mice in the diseased group and control group in Example 4 were examined by IHC technology for AD-related biochemical markers, and examined by IHC technology for the related markers of brain neuroinflammation.
The brain tissues of the mice in the treatment group in Example 4 were examined by IHC technology for the related markers of brain neuroinflammation and compared with the diseased group.

[2] = tested on: Aβ and p-Tau181; assay: IHC of AD-related biochemical markers in brain tissue (hippocampus), wild-type mice
Protocol: as §1, §2, §3
The brain tissues of the mice in the treatment group in Example 4 were examined by IHC technology for AD-related biochemical markers and compared with the diseased group.

[3] = tested on: wild-type mice C57BL/6J; assay: Morris water maze test, wild-type mice given OLDA / OLDA plus formula I; settings: for number of times of crossing the original platform location: platform removed
Protocol: as §1

[4] = tested on: wild-type mice C57BL/6J; assay: Y maze test, wild-type mice given OLDA / OLDA plus formula I
Protocol: as §1

[5] = tested on: colon tissue; assay: HE staining of colon tissue (colonic epithelium histopathology), wild-type mice
Protocol: as §1, with “tests. According to the standard operating procedure of mouse brain anatomy, the mice in the control group, diseased group and treatment group in Example 3 were sacrificed, and their brain tissues and colon tissues were collected respectively and cryopreserved at −80° C. The colon tissues in the diseased group and control group in Example 4 were examined by HE staining technology for colonic epithelium histopathology. The colon tissues of the mice in the treatment group in Example 4 were examined by HE staining technology for colonic epithelium histopathology and compared with the diseased group.” for “tests.”

[6] = tested on: colon tissue; assay: Colon tissue histopathology, 3×Tg mice injected with formula I; settings: 3×Tg mice injected with a composition containing formula I vs control group injected with normal saline
From the text: (§4) 3×Tg mice (AD mice) in Example 2 were directly injected with a composition containing formula I (treatment group).

[7] = tested on: 3×Tg mice (AD mice); assay: Morris water maze test, 3×Tg mice (AD mice) injected with formula I; settings: 3×Tg mice injected with a composition containing formula I vs control group injected with normal saline
From the text: as §4

[8] = tested on: Aβ and p-Tau181; assay: AD markers in hippocampus, 3×Tg mice injected with formula I; settings: 3×Tg mice injected with a composition containing formula I vs control group injected with normal saline
From the text: as §4

[9] = tested on: IBA-1 and GFAP positive cells; assay: Brain neuroinflammation markers, 3×Tg mice injected with formula I; settings: 3×Tg mice injected with a composition containing formula I vs control group injected with normal saline
From the text: as §4

[10] = tested on: 3×Tg mice (AD mice); assay: Y maze test, 3×Tg mice (AD mice) injected with formula I; settings: 3×Tg mice injected with a composition containing formula I vs control group injected with normal saline
From the text: as §4

[11] = OLDA diseased group vs control group
[12] = OLDA 0.5 mg/kg to 1.5 mg/kg intraperitoneal once a day for 8 weeks, diseased group vs control group (normal saline)
[13] = treatment group (OLDA and formula I) vs diseased group (OLDA)
[14] = treatment group (OLDA and formula I, each 0.5 mg/kg to 1.5 mg/kg, mixed solution, intraperitoneal once a day, 8 weeks) vs diseased group (OLDA)

## CCCCCCCC/C=C\CCCCCCCC(=O)NCCc1ccc(O)c(O)c1 [OLDA, N-oleoyl-dopamine, reference compound]
[1]; [11]
  number of GFAP positive cells: increased
  number of IBA-1 positive cells: increased
[2]; [11]
  area of Aβ in the hippocampus: significantly increased
  area of p-Tau181 in the hippocampus: significantly increased
[3]; [12]
  time it took to find the platform (escape latency): significantly prolonged
[3]; OLDA 0.5 mg/kg to 1.5 mg/kg intraperitoneal once a day for 8 weeks, diseased group vs control group
  number of times of crossing the original platform location: significantly reduced
[4]; [12]
  spontaneous alternation rate: significantly reduced
  total number of arm entries: significantly reduced
[5]; [11]
  inflammatory cells in the colon tissue: infiltrated into muscularis mucosa
  number of crypts: decreased

## COc1cccc(NC(=O)/C=C/c2ccc(Cl)cc2)c1 [formula I]
[1]; [13]
  number of GFAP positive cells: decreased
  number of IBA-1 positive cells: decreased
[6]
  inflammatory cells in the colon tissue: infiltrated into muscularis mucosae
  number of crypts: increased
[7]
  time it took to find the platform (escape latency): significantly reduced
[7]; platform removed
  number of times of crossing the original platform location: significantly reduced
[2]; [13]
  area of Aβ in the hippocampus: significantly decreased
  area of p-Tau181 in the hippocampus: significantly decreased
[3]; [13]
  number of times of crossing the original platform location: significantly increased
[3]; [14]
  time it took to find the platform (escape latency): significantly reduced
[8]
  area of Aβ in the hippocampus: decreased
  area of p-Tau181 in the hippocampus: decreased
[4]; [14]
  spontaneous alternation rate: significantly increased
  total number of arm entries: significantly increased
[9]
  number of GFAP positive cells: decreased
  number of IBA-1 positive cells: decreased
[10]
  spontaneous alternation rate: significantly increased
  total number of arm entries: significantly increased
[5]; [13]
  inflammatory cells in the colon tissue: infiltrated into muscularis mucosae
  number of crypts: increased
